Experiment: trans-anethole and vanillin in compositions of modafinil (Example 3)
Format: physicochemical
Experimental: 200 mg of modafinil were weighted in two test tubes (A and B). 2 mL of benzyl alcohol were added to test tube A and 200 mg of vanillin, 2 mL of anethole and 2 mL of benzyl alcohol were added to test tube B. The test tubes were stirred and heated to 60° C. Further, the tubes were cooled at room temperature.

## NC(=O)C[S+]([O-])C(c1ccccc1)c1ccccc1 (centres unmarked) [modafinil]
Tube A: 200 mg in 2 mL benzyl alcohol
  crystallization on cooling at room temperature: promptly crystallized
Tube B: 200 mg vanillin, 2 mL anethole and 2 mL benzyl alcohol, 12 hours after cooling
  crystallization after cooling at room temperature: no crystals were noted

— patent US20080064675A1, “Use of Aromatic flavoring agents with high melting point as solubilizing agents” (priority 2005, published 2008)
